Experimental data published in article PMC4577729, “7-(Pyrazol-4-yl)-3H-imidazo[4,5-b]pyridine-based derivatives for kinase inhibition: Co-crystallisation studies with Aurora-A reveal distinct differences in the orientation of the pyrazole N1-substituent” (Bioorganic & Medicinal Chemistry Letters, 2015).

Key:
Experiment in all cases: Kinase selectivity profiling
Type in all cases: biochemical
GSK3b = GSK3b (Homo sapiens, UniProt P49841); conditions: for GSK3b % activity remaining: 1 µM, assay duplicates
Procedure: (§1) [20] Kinase selectivity profiling for compounds 7a, 7d, 14d and 14g was carried out at the International Centre for Protein Kinase Profiling, Division of Signal Transduction Therapy, University of Dundee.
(§2) Table S1: Kinase selectivity profiling of compounds 7a and 7d in a 102-kinase panel screened at a concentration of 1 µM.
(§3) Table S2: Kinase selectivity profiling of compounds 14d and 14g in a 105-kinase panel screened at a concentration of 1 µM.

MKK1 = MKK1 (Homo sapiens, UniProt Q02750); conditions: 1 µM, assay duplicates
Procedure: as §1, §2, §3

RSK2 = RSK2 (Homo sapiens, UniProt P51812); conditions: 1 µM, assay duplicates
Procedure: as §1, §2, §3

CK1 = CK1 (Homo sapiens, UniProt P48730); conditions: 1 µM, assay duplicates
Procedure: as §1, §2, §3

JNK2 = JNK2 (Homo sapiens, UniProt P45984); conditions: 1 µM, assay duplicates
Procedure: as §1, §2, §3

PHK = PHK (Homo sapiens, UniProt Q16816); conditions: 1 µM, assay duplicates
Procedure: as §1, §2, §3

AMPK = conditions: 1 µM, assay duplicates
Procedure: as §1, §2, §3

PKBa = PKBa (Homo sapiens, UniProt P31749); conditions: 1 µM, assay duplicates
Procedure: as §1, §2, §3

CAMKKb = CAMKKb (Homo sapiens, UniProt Q96RR4); conditions: 1 µM, assay duplicates
Procedure: as §1, §2, §3

JNK1 = JNK1 (Homo sapiens, UniProt P45983); conditions: 1 µM, assay duplicates
Procedure: as §1, §2, §3

IKKe = IKKe (Homo sapiens, UniProt Q14164); conditions: 1 µM, assay duplicates
Procedure: as §1, §2, §3

PKA = PKA (Homo sapiens, UniProt P17612); conditions: 1 µM, assay duplicates
Procedure: as §1, §2, §3

RSK1 = RSK1 (Homo sapiens, UniProt Q15418); conditions: 1 µM, assay duplicates
Procedure: as §1, §2, §3

BRSK2 = BRSK2 (Homo sapiens, UniProt Q8IWQ3); conditions: 1 µM, assay duplicates
Procedure: as §1, §2, §3

PKCz = PKCz (Homo sapiens, UniProt Q05513); conditions: 1 µM, assay duplicates
Procedure: as §1, §2, §3

IRR = IRR (Homo sapiens, UniProt P14616); conditions: 1 µM, assay duplicates
Procedure: as §1, §2, §3

EPH-B3 = EPH-B3 (Homo sapiens, UniProt P54753); conditions: 1 µM, assay duplicates
Procedure: as §1, §2, §3

MARK2 = MARK2 (Homo sapiens, UniProt Q7KZI7); conditions: 1 µM, assay duplicates
Procedure: as §1, §2, §3

MLK3 = MLK3 (Homo sapiens, UniProt Q16584); conditions: 1 µM, assay duplicates
Procedure: as §1, §2, §3

IKKb = IKKb (Homo sapiens, UniProt O14920); conditions: 1 µM, assay duplicates
Procedure: as §1, §2, §3

ERK1 = ERK1 (Homo sapiens, UniProt P27361); conditions: 1 µM, assay duplicates
Procedure: as §1, §2, §3

HER4 = HER4 (Homo sapiens, UniProt Q15303); conditions: 1 µM, assay duplicates
Procedure: as §1, §2, §3

MARK4 = MARK4 (Homo sapiens, UniProt Q96L34); conditions: 1 µM, assay duplicates
Procedure: as §1, §2, §3

TBK1 = TBK1 (Homo sapiens, UniProt Q9UHD2); conditions: 1 µM, assay duplicates
Procedure: as §1, §2, §3

CHK1 = CHK1 (Homo sapiens, UniProt O14757); conditions: 1 µM, assay duplicates
Procedure: as §1, §2, §3

FGF-R1 = FGF-R1 (Homo sapiens, UniProt P11362); conditions: 1 µM, assay duplicates
Procedure: as §1, §2, §3

ERK8 = target: T1, ERK8 (Homo sapiens, UniProt Q8TD08); conditions: for ERK8 inhibition: 1 μM; for ERK8 % activity remaining: 1 µM, assay duplicates
T1 sequence (Q8TD08 1-544): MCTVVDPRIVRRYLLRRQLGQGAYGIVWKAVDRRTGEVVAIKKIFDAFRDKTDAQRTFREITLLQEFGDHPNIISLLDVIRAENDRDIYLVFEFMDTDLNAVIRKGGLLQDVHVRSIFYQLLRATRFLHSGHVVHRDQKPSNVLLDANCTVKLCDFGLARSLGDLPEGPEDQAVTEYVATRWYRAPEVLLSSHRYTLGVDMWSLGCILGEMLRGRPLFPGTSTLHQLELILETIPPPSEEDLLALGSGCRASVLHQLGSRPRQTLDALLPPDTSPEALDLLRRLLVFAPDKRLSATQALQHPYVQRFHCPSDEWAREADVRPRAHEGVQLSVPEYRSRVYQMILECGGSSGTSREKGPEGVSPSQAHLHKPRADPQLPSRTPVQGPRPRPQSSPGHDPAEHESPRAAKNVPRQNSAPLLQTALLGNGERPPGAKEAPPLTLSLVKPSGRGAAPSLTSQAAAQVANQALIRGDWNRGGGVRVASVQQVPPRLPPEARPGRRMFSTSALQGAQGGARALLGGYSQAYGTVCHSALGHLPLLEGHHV
Procedure: as §1, §2, §3

PAK6 = PAK6 (Homo sapiens, UniProt Q9NQU5); conditions: 1 µM, assay duplicates
Procedure: as §1, §2, §3

JNK3 = JNK3 (Homo sapiens, UniProt P53779); conditions: 1 µM, assay duplicates
Procedure: as §1, §2, §3

YES1 = YES1 (Homo sapiens, UniProt P07947); conditions: 1 µM, assay duplicates
Procedure: as §1, §2, §3

PKBb = PKBb (Homo sapiens, UniProt P31751); conditions: 1 µM, assay duplicates
Procedure: as §1, §2, §3

SYK = SYK (Homo sapiens, UniProt P43405); conditions: 1 µM, assay duplicates
Procedure: as §1, §2, §3

EPH-A4 = EPH-A4 (Homo sapiens, UniProt P54764); conditions: 1 µM, assay duplicates
Procedure: as §1, §2, §3

PIM3 = PIM3 (Homo sapiens, UniProt Q86V86); conditions: 1 µM, assay duplicates
Procedure: as §1, §2, §3

DYRK2 = DYRK2 (Homo sapiens, UniProt Q92630); conditions: 1 µM, assay duplicates
Procedure: as §1, §2, §3

MST4 = MST4 (Homo sapiens, UniProt Q9P289); conditions: 1 µM, assay duplicates
Procedure: as §1, §2, §3

GSK3b, sequence (P49841 whole entry): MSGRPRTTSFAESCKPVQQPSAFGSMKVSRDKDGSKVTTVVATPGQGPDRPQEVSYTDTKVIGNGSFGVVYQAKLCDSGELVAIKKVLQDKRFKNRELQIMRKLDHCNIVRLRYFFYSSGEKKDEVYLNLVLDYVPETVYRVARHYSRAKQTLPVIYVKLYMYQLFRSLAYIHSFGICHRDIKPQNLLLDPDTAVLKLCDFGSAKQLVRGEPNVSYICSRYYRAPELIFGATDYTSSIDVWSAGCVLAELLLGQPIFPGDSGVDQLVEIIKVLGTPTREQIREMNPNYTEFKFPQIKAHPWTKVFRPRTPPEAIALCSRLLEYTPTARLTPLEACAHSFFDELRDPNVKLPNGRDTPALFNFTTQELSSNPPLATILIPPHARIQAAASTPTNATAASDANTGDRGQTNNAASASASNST
JNK1, sequence (P45983 whole entry): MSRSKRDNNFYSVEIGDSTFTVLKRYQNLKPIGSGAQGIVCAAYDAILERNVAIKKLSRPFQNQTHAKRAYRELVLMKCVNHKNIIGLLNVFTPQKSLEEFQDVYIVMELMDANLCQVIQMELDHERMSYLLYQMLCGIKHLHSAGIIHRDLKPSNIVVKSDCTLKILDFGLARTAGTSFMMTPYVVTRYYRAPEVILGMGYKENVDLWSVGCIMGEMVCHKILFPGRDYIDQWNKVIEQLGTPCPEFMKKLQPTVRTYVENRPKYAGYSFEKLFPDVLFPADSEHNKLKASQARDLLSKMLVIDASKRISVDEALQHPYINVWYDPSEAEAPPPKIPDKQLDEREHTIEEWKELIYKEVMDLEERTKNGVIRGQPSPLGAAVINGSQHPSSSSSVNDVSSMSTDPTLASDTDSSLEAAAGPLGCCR
MKK1, sequence (Q02750 whole entry): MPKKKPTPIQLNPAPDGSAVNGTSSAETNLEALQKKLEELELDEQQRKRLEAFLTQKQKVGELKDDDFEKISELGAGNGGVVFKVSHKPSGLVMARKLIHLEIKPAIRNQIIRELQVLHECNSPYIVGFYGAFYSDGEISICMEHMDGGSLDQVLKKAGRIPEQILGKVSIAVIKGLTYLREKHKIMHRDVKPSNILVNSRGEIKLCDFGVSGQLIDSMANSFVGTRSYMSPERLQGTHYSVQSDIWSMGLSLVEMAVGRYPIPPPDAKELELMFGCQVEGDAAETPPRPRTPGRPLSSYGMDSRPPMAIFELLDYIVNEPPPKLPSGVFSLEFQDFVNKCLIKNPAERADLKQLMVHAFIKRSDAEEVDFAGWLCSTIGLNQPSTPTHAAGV
JNK3, sequence (P53779 whole entry): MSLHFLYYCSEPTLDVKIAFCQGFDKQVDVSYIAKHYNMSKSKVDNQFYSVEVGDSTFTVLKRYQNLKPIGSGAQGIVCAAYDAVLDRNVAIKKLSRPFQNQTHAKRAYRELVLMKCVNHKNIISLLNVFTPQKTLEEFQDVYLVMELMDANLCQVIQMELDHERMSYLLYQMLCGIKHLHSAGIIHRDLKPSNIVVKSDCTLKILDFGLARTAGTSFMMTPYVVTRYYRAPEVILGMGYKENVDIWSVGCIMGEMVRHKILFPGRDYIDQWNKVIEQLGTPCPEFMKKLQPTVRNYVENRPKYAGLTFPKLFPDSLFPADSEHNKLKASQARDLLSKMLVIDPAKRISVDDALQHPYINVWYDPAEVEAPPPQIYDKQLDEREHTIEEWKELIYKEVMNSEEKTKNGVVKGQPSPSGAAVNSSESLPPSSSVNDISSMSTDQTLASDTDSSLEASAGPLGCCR
MLK3, sequence (Q16584 whole entry): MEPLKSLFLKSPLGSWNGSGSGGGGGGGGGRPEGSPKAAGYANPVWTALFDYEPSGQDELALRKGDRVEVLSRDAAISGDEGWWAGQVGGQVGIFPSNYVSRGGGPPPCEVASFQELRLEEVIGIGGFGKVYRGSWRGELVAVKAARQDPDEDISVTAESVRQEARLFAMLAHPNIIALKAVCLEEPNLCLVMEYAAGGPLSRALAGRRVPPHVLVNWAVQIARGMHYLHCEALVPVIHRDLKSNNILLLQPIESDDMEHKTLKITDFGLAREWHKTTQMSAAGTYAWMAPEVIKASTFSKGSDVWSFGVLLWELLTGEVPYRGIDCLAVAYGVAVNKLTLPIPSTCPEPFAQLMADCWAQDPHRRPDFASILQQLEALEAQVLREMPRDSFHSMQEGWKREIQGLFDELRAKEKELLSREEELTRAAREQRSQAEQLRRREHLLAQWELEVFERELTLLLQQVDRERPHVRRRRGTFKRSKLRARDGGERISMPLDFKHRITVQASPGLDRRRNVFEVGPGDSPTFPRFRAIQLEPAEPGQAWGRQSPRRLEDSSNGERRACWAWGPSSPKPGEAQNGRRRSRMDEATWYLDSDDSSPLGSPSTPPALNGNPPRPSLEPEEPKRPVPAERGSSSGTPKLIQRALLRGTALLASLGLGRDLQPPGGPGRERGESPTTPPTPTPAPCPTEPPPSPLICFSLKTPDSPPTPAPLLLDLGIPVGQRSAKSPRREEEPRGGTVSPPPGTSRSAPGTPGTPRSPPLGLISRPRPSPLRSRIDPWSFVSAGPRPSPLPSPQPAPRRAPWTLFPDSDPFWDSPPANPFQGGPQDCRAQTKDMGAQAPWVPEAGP
PKCz, sequence (Q05513 whole entry): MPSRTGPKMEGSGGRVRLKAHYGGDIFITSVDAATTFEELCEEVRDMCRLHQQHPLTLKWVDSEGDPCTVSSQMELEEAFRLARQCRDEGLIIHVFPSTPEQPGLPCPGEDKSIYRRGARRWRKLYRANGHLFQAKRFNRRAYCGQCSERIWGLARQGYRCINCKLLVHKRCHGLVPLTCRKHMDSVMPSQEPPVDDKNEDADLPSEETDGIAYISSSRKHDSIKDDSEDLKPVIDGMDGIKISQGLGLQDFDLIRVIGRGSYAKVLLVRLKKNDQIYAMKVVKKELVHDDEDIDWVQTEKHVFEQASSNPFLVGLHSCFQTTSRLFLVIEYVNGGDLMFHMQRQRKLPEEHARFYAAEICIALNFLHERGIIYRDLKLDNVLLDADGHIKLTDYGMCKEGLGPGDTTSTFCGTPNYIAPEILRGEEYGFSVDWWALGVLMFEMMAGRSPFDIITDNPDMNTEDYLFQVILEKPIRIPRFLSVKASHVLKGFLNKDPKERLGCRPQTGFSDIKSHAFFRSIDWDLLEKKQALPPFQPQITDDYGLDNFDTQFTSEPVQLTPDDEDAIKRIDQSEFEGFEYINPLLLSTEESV
HER4, sequence (Q15303 26-1308): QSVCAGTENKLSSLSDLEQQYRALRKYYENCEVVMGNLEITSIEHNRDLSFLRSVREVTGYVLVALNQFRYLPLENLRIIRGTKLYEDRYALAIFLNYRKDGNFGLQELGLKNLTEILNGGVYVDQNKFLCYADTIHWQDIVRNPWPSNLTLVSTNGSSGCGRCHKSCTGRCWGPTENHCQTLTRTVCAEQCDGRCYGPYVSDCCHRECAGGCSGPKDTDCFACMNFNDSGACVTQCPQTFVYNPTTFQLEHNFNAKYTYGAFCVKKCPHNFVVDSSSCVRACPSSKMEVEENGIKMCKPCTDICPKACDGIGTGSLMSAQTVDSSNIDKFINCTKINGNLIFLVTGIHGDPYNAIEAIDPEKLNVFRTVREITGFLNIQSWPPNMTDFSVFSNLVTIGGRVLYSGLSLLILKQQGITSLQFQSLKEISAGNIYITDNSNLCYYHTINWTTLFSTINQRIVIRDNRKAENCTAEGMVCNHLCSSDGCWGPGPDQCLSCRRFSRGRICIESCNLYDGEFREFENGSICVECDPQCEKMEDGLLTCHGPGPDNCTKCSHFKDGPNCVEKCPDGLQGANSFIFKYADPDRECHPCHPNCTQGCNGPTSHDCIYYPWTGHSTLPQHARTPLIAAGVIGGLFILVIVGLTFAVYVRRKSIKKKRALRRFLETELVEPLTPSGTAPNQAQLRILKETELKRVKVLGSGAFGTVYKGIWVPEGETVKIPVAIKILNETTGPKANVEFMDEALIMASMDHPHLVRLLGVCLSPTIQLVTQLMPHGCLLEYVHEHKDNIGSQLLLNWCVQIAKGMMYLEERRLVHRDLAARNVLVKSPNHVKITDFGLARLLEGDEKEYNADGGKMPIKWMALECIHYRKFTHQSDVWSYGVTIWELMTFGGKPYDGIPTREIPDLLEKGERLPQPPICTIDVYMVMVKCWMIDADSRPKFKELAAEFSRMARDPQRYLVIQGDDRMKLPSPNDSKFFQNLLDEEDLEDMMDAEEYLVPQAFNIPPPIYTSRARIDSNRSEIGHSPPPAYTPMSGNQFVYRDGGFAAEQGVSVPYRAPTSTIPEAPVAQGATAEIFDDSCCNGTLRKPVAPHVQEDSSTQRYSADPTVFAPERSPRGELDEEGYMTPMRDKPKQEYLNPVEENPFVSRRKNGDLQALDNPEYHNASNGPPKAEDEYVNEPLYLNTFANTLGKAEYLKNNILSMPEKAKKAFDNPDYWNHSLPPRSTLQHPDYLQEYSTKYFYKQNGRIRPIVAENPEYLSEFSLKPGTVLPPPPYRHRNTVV
MST4, sequence (Q9P289 whole entry): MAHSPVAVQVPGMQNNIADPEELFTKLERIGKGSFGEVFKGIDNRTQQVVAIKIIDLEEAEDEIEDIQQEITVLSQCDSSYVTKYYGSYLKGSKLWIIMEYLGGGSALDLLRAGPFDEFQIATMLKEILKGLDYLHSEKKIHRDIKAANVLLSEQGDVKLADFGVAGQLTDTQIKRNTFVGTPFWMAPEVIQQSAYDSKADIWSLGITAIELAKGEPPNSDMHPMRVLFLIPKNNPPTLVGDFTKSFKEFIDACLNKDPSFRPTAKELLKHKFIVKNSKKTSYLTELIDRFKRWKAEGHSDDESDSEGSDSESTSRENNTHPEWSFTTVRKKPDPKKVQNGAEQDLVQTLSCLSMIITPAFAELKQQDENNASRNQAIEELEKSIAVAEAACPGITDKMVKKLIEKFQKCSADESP

SMILES | GSK3b % activity remaining (GSK3b) | MKK1 % activity remaining (MKK1) | RSK2 % activity remaining (RSK2) | CK1 % activity remaining (CK1) | JNK2 % activity remaining (JNK2) | PHK % activity remaining (PHK) | AMPK % activity remaining (AMPK) | PKBa % activity remaining (PKBa) | CAMKKb % activity remaining (CAMKKb) | JNK1 % activity remaining (JNK1) | IKKe % activity remaining (IKKe) | PKA % activity remaining (PKA) | RSK1 % activity remaining (RSK1) | BRSK2 % activity remaining (BRSK2) | PKCz % activity remaining (PKCz) | IRR % activity remaining (IRR) | EPH-B3 % activity remaining (EPH-B3) | MARK2 % activity remaining (MARK2) | MLK3 % activity remaining (MLK3) | IKKb % activity remaining (IKKb) | also measured
Cc1cc(Cn2cc(-c3c(Cl)cnc4[nH]c(-c5cn(C)nc5C)nc34)cn2)no1 [Compound 14d] | 47% | 40% | 20% | 78% | 48% | 27% | 34% | 99% | 42% | 45% | 3% | 63% | 28% | 72% | 96% | 24% | 54% | 28% | 6% | 63% | ERK1 % activity remaining (ERK1): 52%; HER4 % activity remaining (HER4): 73%; MARK4 % activity remaining (MARK4): 25%; TBK1 % activity remaining (TBK1): 7%; CHK1 % activity remaining (CHK1): 52%; FGF-R1 % activity remaining (FGF-R1): 7%; ERK8 inhibition (ERK8): ≥ 80%; ERK8 % activity remaining (ERK8): 1%; PAK6 % activity remaining (PAK6): 45%; JNK3 % activity remaining (JNK3): 62%; YES1 % activity remaining (YES1): 18%; PKBb % activity remaining (PKBb): 94%; SYK % activity remaining (SYK): 49%; EPH-A4 % activity remaining (EPH-A4): 51%; PIM3 % activity remaining (PIM3): 55%; DYRK2 % activity remaining (DYRK2): 34%; MST4 % activity remaining (MST4): 56%
Cc1nn(C)cc1-c1nc2c(-c3cnn(Cc4ccccc4)c3)c(Cl)cnc2[nH]1 [Compound 7a] | 2% | 28% | 42% | 63% | 17% | 17% | 50% | 70% | 19% | 13% | 53% | 72% | 25% | 33% | 103% | 20% | 99% | 31% | 2% | 48% | GSK3β inhibition (GSK3b; 1 μM): greater than 80%; ERK1 % activity remaining (ERK1): 28%; HER4 % activity remaining (HER4): 89%; MARK4 % activity remaining (MARK4): 37%; TBK1 % activity remaining (TBK1): 24%; CHK1 % activity remaining (CHK1): 68%; FGF-R1 % activity remaining (FGF-R1): 5%; ERK8 inhibition (ERK8): greater than 80%; ERK8 % activity remaining (ERK8): 6%; PAK6 % activity remaining (PAK6): 42%; JNK3 % activity remaining (JNK3): 18%; YES1 % activity remaining (YES1): 12%; PKBb % activity remaining (PKBb): 62%; SYK % activity remaining (SYK): 37%; EPH-A4 % activity remaining (EPH-A4): 54%; PIM3 % activity remaining (PIM3): 45%; DYRK2 % activity remaining (DYRK2): 29%; MST4 % activity remaining (MST4): 64%
